# From patent US20250255923A1, “METHODS FOR EXTRACTING MELATONIN AND COMPOSITIONS THEREOF” (priority 2023, published 2025)
# Legend:
# Assay type in all cases: in vivo
# mice [1] = test: Sleep induced by sub-threshold dose of pentobarbital sodium in mice; details: pentobarbital sodium 25 mg/kg 60 min after last dose, twice daily for three days, Diazepam 20 mg/kg BW, Tomato Extract 3 mg/kg BW (melatonin content), Synthesized Melatonin 5 mg/kg BW; for Number of Mice that Fell Asleep: 10 mice, within 30 minutes
# mice [2] = test: Sleep induced by over-threshold dose of pentobarbital sodium in mice; details: pentobarbital sodium 40 mg/kg 60 min after last dose, twice daily for three days, Diazepam 20 mg/kg BW, Tomato Extract 3 mg/kg BW (melatonin content), Synthesized Melatonin 5 mg/kg BW; for Number of Mice that Fell Asleep: 10 mice, within 30 minutes
# mice [3] = test: Threshold dose experiment of pentobarbital sodium (sleep rate within 30 minutes post-injection); details: for Sleep Rate (%) / Number of Mice that Fell Asleep: within 30 minutes; for Number of Mice that Fell Asleep: 10 mice
# Experimental: Threshold Dose Experiment of Pentobarbital Sodium: A total of 40 mice were randomly divided into four groups, with 10 mice in each group. Each group received an intraperitoneal injection of pentobarbital sodium at the following doses: 25 mg/kg bodyweight (BW), 30 mg/kg BW, 35 mg/kg BW, and 40 mg/kg BW. The sleep rates of the mice were recorded within 30 minutes post-injection.
# Based on the experimental results, it appears that the lower threshold dose of pentobarbital sodium is 25 mg/kg BW (“sub-threshold dose”). Based on the experimental results, it appears that the upper threshold dose of pentobarbital sodium is 40 mg/kg BW (“over-threshold dose”). The lower threshold was used for subsequent studies.
# [4] = mice, intraperitoneal, sleep within 30 minutes
Compound,Sleep Latency (mice [1]),Sleep Rate (%) (mice [1]),Total Sleep Duration (mice [1]),Number of Mice that Fell Asleep (mice [1]),Sleep Latency (mice [2]),Sleep Rate (%) (mice [2]),Total Sleep Duration (mice [2]),Number of Mice that Fell Asleep (mice [2]),Sleep Rate (%) (mice [3]; 25 mg/kg BW intraperitoneal),Number of Mice that Fell Asleep (mice [3]; 25 mg/kg BW intraperitoneal),Sleep Rate (%) (mice [3]; 30 mg/kg BW intraperitoneal),Number of Mice that Fell Asleep (mice [3]; 30 mg/kg BW intraperitoneal),Sleep Rate (%) (mice [3]; 35 mg/kg BW intraperitoneal),Number of Mice that Fell Asleep (mice [3]; 35 mg/kg BW intraperitoneal),Sleep Rate (%) (mice [3]; 40 mg/kg BW intraperitoneal),Number of Mice that Fell Asleep (mice [3]; 40 mg/kg BW intraperitoneal),lower threshold dose (sub-threshold dose) (mice [3]; [4]),upper threshold dose (over-threshold dose) (mice [3]; [4])
"COc1ccc2[nH]cc(CCNC(C)=O)c2c1 [Chemically Synthesized Melatonin, N-acetyl-5-methoxytruptamine]",6.33 min,100%,21.56 min,10,4.53 min,100%,62.56 min,10,,,,,,,,,,
"CCCC(C)C1(CC)C(=O)NC(=O)NC1=O (stereo not shown) [Pentobarbital Sodium, pentobarbital sodium]",12.37 min,10%,11.50 min,1,12.69 min,100%,13.50 min,10,10%,1,50%,5,80%,8,100%,10,25 mg/kg BW,40 mg/kg BW
CN1C(=O)CN=C(c2ccccc2)c2cc(Cl)ccc21 [Diazepam],7.89 min,100%,19.23 min,10,5.13 min,100%,58.23 min,10,,,,,,,,,,
